According to patent publication US20240335483A1, “NEW METHOD TO TREAT AUTOIMMUNE DISEASES” (INSTITUT NATIONAL DE LA SANTÉ ET DE LA RECHERCHE MÉDICALE, priority 2021, published 2024):
“Also recorded” adds a separate entry of the source.

Assays:
Assay type in all cases: in vivo, mouse
NOD mice = experiment: Spontaneous diabetes incidence
Procedure: Female NOD, BALB/c, C57BL/6J, C57BL/6J camp−/− in different ages were used, bred and housed in specific pathogen-free conditions. Recombinant mouse CRAMP1-39 and scrambled (sc)CRAMP1-39 were produced under aseptic conditions and provided after endotoxin removal processing (Innovagen). Newborn NOD mice were treated by intra-colonic treatment between 10 and 21 days of age every 3 days with CRAMP or scCRAMP (10 μg in 10 μL/mouse/injection) or vehicle (PBS-1% H2O). For blocking TLR experiments, newborn NOD mice were treated between 7 and 14 days of age every 3 days with TLR2 inhibitor CU CTP22 (25 μg in 10 μL/mouse/injection) or TLR4 inhibitor TAK242 (25 μg in 10 μL/mouse/injection) or with TLR5 inhibitor TH1020 (20 μg in 10 μL/mouse/injection) or with vehicle (PBS 1% DMSO). All inhibitors are from Tocris. For modulating IFNα experiment, newborn NOD mice were treated between 7 and 14 days of age every 3 days with anti-IFNα receptor mAb (200 μg in 10 μL/mouse/injection) (BioXcell) or equivalent amount of isotype control (mouse IgGI) or gardiquimod (50 μg in 10 μL/mouse/injection) or vehicle (PBS-1% H2O). For CRAMP-expressing probiotic experiment, pregnant NOD mice were given CRAMP-expressing Lactococcus lactis or conventional L. lactis ([…] colony forming units (cfu) in 100 μL PBS/mice) by oral gavage one day before delivery. For cross-fostering experiments, NOD pups were adopted immediately at birth by recipient mice (C57BL/6, BALB/c, CRAMP-treated NOD mice or NOD mice), that delivered the same day and pups from the two litters were maintained in the same cage. All animal experimental protocols were approved by the ethic committee for animal experimentation (APAFIS #3535-2015092416202090).
NOD mice were treated as described above with CRAMP or scCRAMP, anti-IFNαR mAb, gardiquimod or were born from CRAMP-expressing L. lactis treated NOD mice or were cross-fostered by CRAMP-treated NOD mice. […]
Diabetes incidence was plotted according to the Kaplan-Meier method. […] All data were analyzed using GraphPad Prism v6 software.

Treg cells = experiment: Flow cytometry of regulatory T cells in tissues
Procedure: (§1) Pancreata were perfused with a solution of collagenase P in HBSS-1% HEPES (0.75 mg.ml-1, Roche), then dissected free from surrounding tissues. Pancreata were digested at 37° C. for 8 min. Digestion was stopped by adding HBSS-10% FCS-1% EDTA followed by extensive washes. For flow cytometry analysis, islets were isolated on a discontinuous Ficoll® PM400 gradient (Sigma-Aldrich) and then isolated islets were handpicked to exclude contaminations from intrapancreatic lymph nodes. Cells were released from the islets by incubation at 37° C. for 6 min in non-enzymatic cell dissociation solution (Sigma-Aldrich). For RT-qPCR, to avoid potential contamination by exocrine tissue, islets were purified by handpicking in 3 consecutive baths of HBSS-10% FCS supplemented with 1% DNAse 1.
Immune cells from the colon were isolated using the Lamina Propria Dissociation Kit from Miltenyi (#130-097-410), combined with gentleMACS™ Octo dissociator with heaters (#130-096-427) according to the manufacturer's instructions.
Single cell suspensions were prepared from various tissues, surface staining was performed after FcγRII/III blocking (anti-CD16/CD32) for 5 min at 4° C. and were surface stained for 30 min at 4° C. Staining buffer was PBS containing 2% FCS, 0.5% EDTA and 0.1% sodium azide. […] Stained cells were analyzed on a Becton Dickinson Fortessa flow cytometer. Data were analyzed with Flowjo™ v10 software.

microbiota = experiment: 16S rDNA gene sequencing of microbiota composition; settings: 5 weeks of age, after intracolonic CRAMP in newborn NOD mice
Procedure: Stools were recovered from 5 mice from 5 independent cages per group, and were stored at −80° C. in DNA/RNA Shield™ (Zymo Research, #R1100-250) immediately after emission before shipment to Zymo Research (ZymoBIOMICS Services). For CRAMP treatment experiments, pups from different litters were randomly mixed and then separate before treatment with CRAMP or scCRAMP. The samples were processed and analyzed with the ZymoBIOMICS® Targeted Sequencing Service for Microbiome Analysis (Zymo Research, Irvine, CA). DNA Extraction: One of three different DNA extraction kits was used depending on the sample type and sample volume. In most cases, the ZymoBIOMICS® DNA Miniprep Kit (Zymo Research, Irvine, CA) was used. For low biomass samples, such as skin swabs, the ZymoBIOMICS® DNA Microprep Kit (Zymo Research, Irvine, CA) was used as it permits for a lower elution volume, resulting in more concentrated DNA samples. For a large sample volume, the ZymoBIOMICS@-96 MagBead DNA Kit (Zymo Research, Irvine, CA) was used to extract DNA using an automated platform. Targeted Library Preparation: Bacterial 16S ribosomal RNA gene targeted sequencing was performed using the Quick-16S™ NGS Library Prep Kit (Zymo Research, Irvine, CA). The bacterial 16S primers amplified the V1-V2 or V3-V4 region of the 16S rRNA gene. These primers have been custom-designed by Zymo Research to provide the best coverage of the 16S gene while maintaining high sensitivity. Fungal ITS gene targeted sequencing was performed using the Quick-16S™ NGS Library Prep Kit with custom ITS2 primers substituted for 16S primers. […] The final PCR products were quantified with qPCR fluorescence readings and pooled together based on equal molarity. The final pooled library was cleaned up with the Select-a-Size DNA Clean & Concentrator™ (Zymo Research, Irvine, CA), then quantified with TapeStation®(Agilent Technologies, Santa Clara, CA) and Qubit® (Thermo Fisher Scientific, Waltham, […]). […] Bioinformatics Analysis: Unique amplicon sequences were inferred from raw reads using the DADA2 pipeline. […]

[1] = system: IGRP206-214-specific CD8+ T cells; experiment: Flow cytometry of diabetogenic IGRP206-214-specific CD8+ T cells; settings: 12-week-old NOD mice after intracolonic CRAMP as newborns
Procedure: as §1
Single cell suspensions were prepared from various tissues, surface staining was performed after FcγRII/III blocking (anti-CD16/CD32) for 5 min at 4° C. and were surface stained for 30 min at 4° C. Staining buffer was PBS containing 2% FCS, 0.5% EDTA and 0.1% sodium azide. For detection of the subsets of conventional dendritic cells, cells suspension were surface stained with anti-CD45, -TCRβ, -CD19-CD11c, -F4/80, -CD103, -CD11b. […] Stained cells were analyzed on a Becton Dickinson Fortessa flow cytometer. Data were analyzed with Flowjo™ v10 software.

type I IFN signature = experiment: Colonic type I IFN signature (RNAseq, RT-qPCR)
Procedure: (§2) Total RNA was isolated using the Nucleospin RNA XS kit (Macherey-Nagel) from a minimum of 100 handpicked islets per mouse or using Nucleospin RNA kit (Macherey-Nagel) for colon tissue. RNA was reverse transcribed to synthesized cDNA using the high capacity cDNA reverse transcription kit (ThermoFisher) and measurements were performed by qPCR using Power SYBR® Green (ThermoFisher) on a 7900HT Fast System (Applied Biosystems). Resulting levels of fluorescence were submitted to relative quantification by normalization against a housekeeping gene (GAPDH) and expressed as 2-(ΔCT) values.
Colon tissue was recovered from 5 mice from 5 independent cages per group. Total RNA were isolated from colon using the RNeasy Kit (QIAGEN) including a DNAse treatment step. RNA quality was assessed using RNA Screen Tape 6000 Pico LabChips with the Tape Station (Agilent Technologies) and RNA concentration was measured by spectrophometry using the Xpose (Trinean). RNAseq libraries were prepared starting from 1 μg of total RNA using the TruSeq Stranded mRNA LT Sample Prep Kit (Illumina) as recommended by the manufacturer. […] A mean of 23 million of paired-end reads was produced per library sample (between 21 to 25 million of passing filter reads). The generated data were analyzed using the Ingenuity Pathway Analysis software (Qiagen).

TLR2 ligands = experiment: TLR2 ligand levels in colon extract (HEK-blue TLR reporter cells); settings: NOD mice, intracolonic CRAMP treatment
Procedure: (§3) Colons from 2-week-old mice were recovered in 100 μL PBS, cut in some pieces and homogenized by vortexing. Cell-free supernatant was recovered after centrifugation at 10 000 g for 10 min. A 100-fold dilution was used to measure TLR2 and TLR4 ligand levels in the supernatants using HEK-blue™ TLR reporter cells ([…], #hkb-mtlr2 and #hkb-mtlr4) according to the manufacturer protocol.

TLR4 ligands = experiment: TLR4 ligand levels in colon extract (HEK-blue TLR reporter cells); settings: NOD mice, intracolonic CRAMP treatment
Procedure: as §3

[2] = system: inflammatory and regulatory cytokines in colon; experiment: Cytokine expression in colon (RT-qPCR)
Procedure: as §2

Row | Compound | diabetes incidence (NOD mice; gardiquimod, intracolonic, newborn female NOD mice) | frequency of pancreatic LAP+ Treg cells (Treg cells; male NOD mice, intracolonic gardiquimod at 10 days of age, pancreatic islets at 12 weeks of age) | development (incidence) of diabetes (NOD mice; female NOD mice, intracolonic CRAMP every 3 days from 10 to 21 days of age, control scCRAMP, FIG. 1A) | incidence of diabetes in adopted NOD mice (NOD mice; newborn NOD mice from untreated dams cross-fostered to NOD dams treated by CRAMP between 10 and 21 days of age, FIG. 1) | abundance of the genera Lactobacillus and Bifidobacterium (microbiota) | abundance of the genus Alistipes (microbiota) | microbiota composition (microbiota; control scCRAMP) | frequency and absolute number of Treg cells (Treg cells; prediabetic 12-week-old NOD mice after intracolonic CRAMP as newborns, pancreas, colon, PLN, MLN, spleen) | frequency and absolute number of IGRP206-214-specific CD8+ effector T cells [1] | type I IFN signature in the colon (type I IFN signature; colonic CRAMP treatment of 10-day-old NOD mice) | type I IFN signature in the newborns (type I IFN signature; newborn NOD mice cross-fostered by NOD dams previously treated with CRAMP at 10 days of age) | level of TLR2 ligands in the colon (TLR2 ligands) | level of TLR4 ligands in the colon (TLR4 ligands) | cytokine profile in the colon ([2]; CRAMP treatment of adult NOD mice) | expression of inflammatory cytokines in colon ([2]; adult NOD colon after CRAMP treatment of newborn NOD mice)
1 | CCNCc1nc2c(N)nc3ccccc3c2n1CC(C)(C)O [gardiquimod, reference compound] | increased | decreased the frequency of pancreatic LAP+ Treg cells in the adult NOD mice |  |  |  |  |  |  |  |  |  |  |  |  | 
2 | CRAMP |  |  | significantly prevented the development of diabetes | decrease of diabetes development; also recorded: decreased incidence of diabetes in the adopted NOD mice | increased abundance | decreased abundance | changed microbiota composition in the adult mice | increased the frequency, but not the absolute number, of Treg cells in the pancreas and colon of adult NOD mice | decreased in the pancreas and PLN in the adult mice | reduced | prevented the aberrant type I IFN signature in the newborns | reduced the levels of TLR2 and TLR4 ligands in the colon | reduced the levels of TLR2 and TLR4 ligands in the colon | inefficient at changing the cytokine profile in the colon | prevented the overexpression of inflammatory cytokines in the adult NOD colon
